US4146719A, “Piperazinyl derivatives of quinoline carboxylic acids” (priority 1977, dated 1979)
In brackets after ≈: the same amount, converted by molar mass. Like-named read-outs stand apart in the source and are kept apart here.

Key:
Str. pyogenes S-8 = test: Antibacterial activity in vitro, M.I.C., agar dilution streak method; format: cell-based, Streptococcus pyogenes; settings: Streptococcus pyogenes, S8; Gram +; read-out: M.I.C.
Str. faecalis IID 682 = test: as above; format: cell-based; settings: Enterococcus faecalis, IID682; Gram +
[1] = tested on: Mycobacterium phlei IFO 3142; test: as above; format: cell-based; settings: Mycolicibacterium phlei, IFO3142; Gram +; read-out: M.I.C.
My. smegmatis IFO 3083 = test: as above; format: cell-based; settings: Mycolicibacterium smegmatis, IFO3083; Gram +; read-out: M.I.C.
Escherichia coli NIHJ = test: as above; format: cell-based; settings: Escherichia coli; Gram -; read-out: M.I.C.
[2] = tested on: Salmonella enteritidis IID 604; test: as above; format: cell-based; settings: Salmonella enterica; Gram -; read-out: M.I.C.
[3] = tested on: Haemophilus influenzae IID 986; test: as above; format: cell-based; settings: Haemophilus influenzae, IID986; Gram -; read-out: M.I.C.
[4] = tested on: Neisseria perflava IID 856; test: as above; format: cell-based; settings: Neisseria perflava, IID856; Gram -; read-out: M.I.C.
[5] = tested on: Pseudomonas aeruginosa V-1; test: as above; format: cell-based; settings: Pseudomonas aeruginosa, V1; Gram -; read-out: M.I.C.
Ps. aeruginosa IID 1210 = test: as above; format: cell-based, Pseudomonas aeruginosa; settings: Pseudomonas aeruginosa, IID1210; Gram -; read-out: M.I.C.
[6] = Chelate formation with ferric ion; format: physicochemical; settings: one third molar equivalent of ferric chloride hexahydrate, molar equivalent of sodium hydroxide, water
Text: It is known that most of drugs such as Quinoform and Ethambutol which form chelates with metal ions in vivo produce undesirable side effects.

[7] = tested on: Escherichia coli NIHJ JC-2; test: Preventive effect against ascending kidney infection in mice with Escherichia coli; format: in vivo, Escherichia coli; mice (ddY, female); settings: for effect against ascending kidney infection (in words): mice
Procedure: Ascending kidney infection was induced in female mice (strain: ddY, 6 weeks old, body weight: 22-26g), by instilling Escherlichia coli NIHJ JC-2 suspended in 0.04 ml of Tryptosoya broth (Nissan) into the urinary tract of mice anesthetized with sodium pentobarbital and by holding for 6 hours the mice in plastic tubes (diameter 25 mm) and clamping the outlet of urinary tract.
Each of these test material was orally administered 3 hours after inoculation. Mice were sacrificed 48 hours after inoculation. Kidneys were removed aseptically and bisected, and the two halves were pressed and streaked on agar plate containing Desoxycholate medium (Nissan). The therapeutic effect of each compound was evaluated from the absence of growth on the agar surface after 20 hours of incubation at 37° C.

[8] = Serum concentrations after a single oral administration of 50 mg/kg in rats; format: in vivo; settings: rat, 50 mg/kg oral
[9] = tested on: Escherichia coli NIHJ JC-2; test: Influence of serum on antibacterial activity; format: cell-based
Procedure: (§1) Nutrient agar was heated and melted. […] The diameter of the inhibition zone was measured.

[10] = tested on: Escherichia coli NIHJ JC-2; test: Influence of kidney homogenate on antibacterial activity; format: cell-based
Procedure: as §1

[11] = tested on: Escherichia coli NIHJ JC-2; test: Influence of rat bile on antibacterial activity; format: cell-based; settings: bile of rats
Procedure: as §1

[12] = Biliary excretion in rats after a single oral administration of 50 mg/kg; settings: rat, in vivo, po, 50 mg/kg
chromosome of myelocytes = tested on: chromosome of myelocytes; design: species or system rats; settings: rat, in vivo, po, 1000 mg/kg
[13] = rat, in vivo, po, 50 mg/kg
Procedure: (§2) Nutrient agar was heated and melted. Escherichia coli NIHJ JC-2 was added to melted agar, and well mixed, and 5 ml of the mixture was placed in Petri dish. Penicylinders were placed on the solidified agar, and the cylinder was filled with serum sample. The plate was placed in the incubator of 37° C. for 20 hours. The diameter of the inhibition zone was measured.
(§3) The tissue homogenates were prepared with 1:4 homogenates in M/15 phosphate buffer (pH 7.5).

in vivo = settings: rat, po, 50 mg/kg
Procedure: as §2, §3

[14] = Serum concentrations at 30 min. after a single oral administration in rats; settings: rat
[15] = Concentrations in tissues after a single oral administration of 50 mg/kg in rats; settings: rat; for Tissue level, liver (free concentration): 50 mg/kg oral, mean ± S.E.
Procedure: as §2, §3

CCn1cc(C(=O)O)c(=O)c2cc(F)c(N3CCNCC3)cc21 [Compound (II), 1-ethyl-6-fluoro-1,4-dihydro-7-(1-piperazinyl)-4-oxoquinoline-3-carboxylicacid]
MIC (Str. pyogenes S-8): 1.56 mg/L (≈ 4.89 µM)
MIC (Str. faecalis IID 682): 3.13 mg/L
MIC [1]: 0.39 mg/L (≈ 1.22 µM)
MIC (My. smegmatis IFO 3083): 1.56 mg/L (≈ 4.89 µM)
MIC (Escherichia coli NIHJ): 0.1 mg/L (≈ 0.313 µM)
MIC [2]: 0.2 mg/L (≈ 0.626 µM)
MIC [3]: 0.05 mg/L (≈ 0.157 µM)
MIC [4]: 0.05 mg/L (≈ 0.157 µM)
MIC [5]: 0.39 mg/L (≈ 1.22 µM)
MIC (Ps. aeruginosa IID 1210): 1.56 mg/L (≈ 4.89 µM)
chelate compound with ferric ion [6]: did not give any chelate compound when treated with ferric ion
ED50 ([7]; Escherichia coli, NIHJJC2, 48 h, oral, 3 hours after inoculation, challenge 3.2 × 10^7 cells/mouse, read-out: ED50 (95% confidence limit)): 15 mg/kg
ED90 ([7]; Escherichia coli, NIHJJC2, 48 h, oral, 3 hours after inoculation, challenge 3.2 × 10^7 cells/mouse, read-out: ED90): 61 mg/kg
effect against ascending kidney infection (in words) [7]: more potent than nalidixic acid and pipemidic acid
effect against ascending kidney infection (in words) ([7]; listed as EXAMPLE 2): effective against ascending kidney infection with Escherichia coli in mice
absorption (in words) [8]: rapid
concentration at 0.5 h ([8]; serum, 0.5 hours): 0.87 ± 0.11 µg/mL
concentration at 1 h ([8]; serum, 1 hour): 0.77 ± 0.13 µg/mL
concentration at 2 h ([8]; serum, 2 hours): 0.52 ± 0.1 µg/mL
concentration at 4 h ([8]; serum, 4 hours): 0.23 ± 0.02 µg/mL
concentration at 6 h ([8]; serum, 6 hours): 0.11 ± 0.01 µg/mL
Tmax ([8]; serum, read-out: time of concentration peak in serum (converted)): 30 min
antibacterial activity in presence of serum (in words) [9]: not decreased by serum
antibacterial activity in presence of kidney homogenate (in words) [10]: decreased by liver and kidney homogenate
antibacterial activity in presence of bile (in words) [11]: not influenced by bile of rats
biliary levels and cumulative excretion (in words) [12]: more excellent than those of nalidixic acid and pipemidic acid
concentration at 3 h [12]: 31 ± 3.5 µg/mL
concentration at 6 h [12]: 26.4 ± 3.2 µg/mL
concentration at 24 h [12]: 18.9 ± 1.6 µg/mL
concentration at 27 h [12]: 6.7 ± 0.9 µg/mL
dose excreted at 3 h [12]: 0.6 ± 0.06%
dose excreted at 6 h [12]: 1.02 ± 0.11%
dose excreted at 24 h [12]: 2.43 ± 0.23%
dose excreted at 27 h [12]: 2.5 ± 0.23%
effects on chromosome of myelocytes (in words) (chromosome of myelocytes): no effects of the test compound on chromosome of myelocytes were observed
Tissue level, kidney (free concentration) ([13]; 30 min): 7.4 ± 1.4 µg/g
Tissue level, kidney (free concentration) ([13]; 60 min): 6.8 ± 1.2 µg/g
Tissue level, kidney (free concentration) ([13]; 120 min): 4.4 ± 0.6 µg/g
Tissue level, kidney (free concentration) ([13]; 240 min): 1.9 ± 0.2 µg/g
Tissue level, kidney (free concentration) ([13]; 360 min): 1.0 ± 0.1 µg/g
concentration at 0.5 h (in vivo): 11100 ± 2100 ng/g
concentration at 1 h (in vivo): 10300 ± 2000 ng/g
concentration at 2 h (in vivo): 6500 ± 900 ng/g
concentration at 4 h (in vivo): 3500 ± 900 ng/g
concentration at 6 h (in vivo): 1400 ± 100 ng/g
concentration at 0.5 h ([14]; 25 mg/kg): 0.31 ± 0.04 µg/mL
concentration at 0.5 h ([14]; 50 mg/kg): 0.87 ± 0.11 µg/mL
concentration at 0.5 h ([14]; 100 mg/kg): 1.42 ± 0.23 µg/mL
concentration at 0.5 h ([14]; 200 mg/kg): 2.23 ± 0.3 µg/mL
concentration at 0.5 h ([14]; 400 mg/kg): 3.37 ± 0.35 µg/mL
Tissue level, liver (free concentration) ([15]; 0.5 hrs.): 4.1 ± 0.9 µg/g
Tissue level, liver (free concentration) ([15]; 1 hr.): 3.7 ± 0.6 µg/g
Tissue level, liver (free concentration) ([15]; 2 hrs.): 2.5 ± 0.5 µg/g
Tissue level, liver (free concentration) ([15]; 4 hrs.): 1.2 ± 0.2 µg/g
Tissue level, liver (free concentration) ([15]; 6 hrs.): 0.7 ± 0.1 µg/g
concentration at 0.5 h ([15]; liver, po, 50 mg/kg): 9000 ± 1900 ng/g
concentration at 1 h ([15]; liver, po, 50 mg/kg): 7900 ± 1200 ng/g
concentration at 2 h ([15]; liver, po, 50 mg/kg): 5400 ± 1000 ng/g
concentration at 4 h ([15]; liver, po, 50 mg/kg): 2600 ± 400 ng/g
concentration at 6 h ([15]; liver, po, 50 mg/kg): 1500 ± 200 ng/g
